These results are taken from patent US20050014742A1, “Use of inhibitors of the y2 receptor of neuropeptide y in the treatment of alcoholism” (priority 2001, published 2005).

Assay type in all cases: in vivo, rat
One series deals with rats. Briefly: Preliminary dose-finding experiments (sedation). The settings on record: dose of 3 nmol i.c.v. As to the method: […] […] The drug was dissolved in 0.9% NaCl and injected 45 min prior to onset of sessions, in a volume of 10 μl over a period of 2 min interval. The injection cannula was left in place for an additional minute to prevent back flow.
The subject of a further series is Male Wistar rats. Nature of the series: Operant ethanol self-administration after intracerebroventricular injection. The method, then: Male Wistar rats (Charles River, Hamburg, Germany), appr. 225 g at start of experiment were used for the experiments from which data are presented. For a replication experiment (see Results), Wistar males of the same age but delivered by Mollegard, Ry, Denmark, were used. Subjects were housed on a reversed light-cycle (lights off 11 am, on 11 pm). Following training for operant responding (see below), surgery was carried out for unilateral cannula implantation. Rats were anaesthetized with ketaminelxylazine (80 mg/kg and 15 mg/kg) and placed in a stereotaxic apparatus (Kopf). Stainless steel guide cannulas (23 gauge, PlasticOne, Roanoke, Va.) aimed at the lateral ventricle were implanted and secured to the skull with stainless screws and dental cement. Final injection coordinates were: A=−0.8, L=±1.4, V=−4.3 from Bregma (15). Animals were allowed to recover for one week, during which time they were only repeatedly handled, in order to reduce the stress of subsequent intracerebroventricular injections. They were then reintroduced to the operant task (see below), and allowed to re-establish their rates of operant responding for two weeks. Finally, the actual Latin-square design was initiated, and carried out over the course of three weeks.
BIIE0246 ([…]; kind gift of Boehringer Ingelheim) or saline was injected i.c.v. via an injection cannula (28-gauge) connected to a 10 μl Hamilton syringe with a low-volume plastic tubing. […] The drug was dissolved in 0.9% NaCl and injected 45 min prior to onset of sessions, in a volume of 10 μl over a period of 2 min interval. The injection cannula was left in place for an additional minute to prevent back flow.
Following completion of training, rats were subjected to surgery, allowed to recover for one week and to stabilize their baseline responding for two weeks, after which a Latin Square design was initiated and carried out over three weeks. During each of these weeks, rats were run Monday-Friday, and drug administration was on Friday. […] In order to retain a balanced design, the analysis presented here includes only those subjects, which completed all treatments. An analysis based on all subjects, with missing values for failed injections, produced a virtually identical result.

A further series relates to Wistar rats. Briefly: Exploratory locomotor activity after intracerebroventricular administration. The settings on record: for Horizontal locomotor activity / Vertical locomotor activity (rearings): 30 min test period, n=6, mean ± SEM.
[1] abbreviates: Wistar rats from Mollegard, separate experiment (data not shown).

Entries after “also recorded” stand apart in the source; their conditions may differ.

As to `N=C(N)NCCC[C@H](NC(=O)CC1(CC(=O)N2CCN(C3c4ccccc4NC(=O)c4ccccc43)CC2)CCCC1)C(=O)NCCn1c(=O)n(-c2ccccc2)n(-c2ccccc2)c1=O` (stereo partly drawn) [BIIE0246, (S)—N^2-//1-/2-/4-/(R,S)-5,11-Dihydro-6(6H)-oxodibenz/b,elazepin-11-yl/-1-piperazinyl/-2-oxoethyl/-cyclopentyl/acetyl/-N-/2-/1,2-dihydro-3,5(4H)-dioxo-1,2-diphenyl-3H-1,2,4-triazol-4-yl/-ethyl/-argininamide], in the series on rats, the Sedative effect entry is “marked sedative effects”. Moreover, the “Ethanol-reinforced responses over time (cumulative, 5 min intervals)” value in the series on Male Wistar rats (1.0 nmol i.c.v., 30 min session, vs saline, Tukey HSD p<0.001) is given as “present during min 10-30; also recorded: significantly less during the last 20 but not during the initial 10 min”. Further, the “Reduction of total responding for ethanol” value with Male Wistar rats (1.0 nmol i.c.v., 45 min before 30 min session, Wistar rats (Charles River), p<0.05 vs saline and vs 0.3 nmol) is recorded as roughly 40%. In addition, the Responding for ethanol result with Male Wistar rats (1.0 nmol i.c.v., n=13, p=0.013 (FIG. 1A)) is listed as “significantly reduced”. Further, in the series with Male Wistar rats (setting [1]), the “Effect on saccharin solution, replication experiment” value was “no effect” and the “Suppression of responding for ethanol, replication experiment” value came to 40%. Also, in the series with Male Wistar rats (i.c.v., 0, 0.3 and 1.0 nmol, one way ANOVA, n=13, p=0.013), the “Total responding for ethanol (overall treatment effect)” value is given as “significantly reduced”. The Responding for saccharin result in the series on Male Wistar rats (i.c.v., 0.3 and 1.0 nmol, p=0.25, Charles River Wistar rats) is “unaffected”. In the series on Wistar rats (0.3 nmol i.c.v.), the Horizontal locomotor activity was 2873.8 ± 572.0 and the “Vertical locomotor activity (rearings)” value worked out at 756.8 ± 122.9. In addition, in the series with Wistar rats (1.0 nmol i.c.v.), the Horizontal locomotor activity is recorded as 2630.2 ± 480.0 and the “Vertical locomotor activity (rearings)” value is listed as 503.3 ± 113.4. Also, the “Effect of treatment on horizontal and vertical locomotor activity” value in the series on Wistar rats (i.c.v., 0.3 and 1.0 nmol, n=6, p=0.74 horizontal, p=0.17 vertical) was “Neither horisontal (n=6; F[2,15]=0.3; p=0.74) nor vertical activity (F[2,15]=2.0; p=0.17) was affected”.
